pIC50: −log10 of the molar value.

For assay [1], the target named is human JAK3 (Homo sapiens (Human), UniProt P52333). Nature of the assay: JAK3 kinase inhibitory activity, ADP Glo assay. The settings on record: read-out: JAK3 IC50, recombinant human JAK3, ATP 5 uM. (In ADP-Glo the light output rises with the ADP produced.)
Assay [2] relates to JAK3. Nature of the assay: JAK3-mediated cell assay (HT-2/IL-2 assay), STAT5 phosphorylation. The settings on record: HT2; STAT5 phosphorylation induced by IL-2 (20 ng/ml) in HT-2 cells, HTRF. Format: cell-based. On the procedure: The inhibitory activities against JAK3 kinase at the cellular level were measured for the compounds prepared in the Examples through in vitro analysis of STAT5 phosphorylation induced by IL-2 stimulation in HT-2 cells. Specifically, STAT5 phosphorylation was analyzed using HTRF® phospho-STAT5 (Tyr694) assay kit (Cisbio, 64AT5PEG), which was purchased from Cisbio. HT-2 cells were cultured for 2 hours in growth factor-free medium. The cultured HT-2 cells were dispensed into 96-well plates by 50 ul so as to be a density of 2.5×10^5 cells/well. The compounds prepared in the previous Examples were prepared so as to be finally a 0.3% DMSO aqueous solution, and HT-2 cells was treated with the compounds for 30 minutes. After the compound treatment, IL-2 was prepared so as to be finally a concentration of 20 ng/ml, and HT-2 cells was treated for 10 minutes. The cells were then disrupted by treating lysis buffers for 30 minutes. The level of STAT5 phosphorylation was measured according to the instructions of HTRF® phospho-STAT5 assay kit, and the inhibitory activity of the compounds according to the invention was calculated. For the analysis of the results of each compound, Microsoft Excel was used, and IC50 values were calculated by SigmaPlot software.
Background: TR-FRET usually uses a lanthanide donor and a delayed reading to cut background.

Assay [3] addresses human BTK (Homo sapiens (Human), UniProt Q06187). Nature of the assay: BTK kinase inhibitory activity, ADP Glo assay. The settings on record: read-out: BTK IC50, recombinant human BTK, ATP 10 uM.

Chain of human BTK (Q06187 whole entry): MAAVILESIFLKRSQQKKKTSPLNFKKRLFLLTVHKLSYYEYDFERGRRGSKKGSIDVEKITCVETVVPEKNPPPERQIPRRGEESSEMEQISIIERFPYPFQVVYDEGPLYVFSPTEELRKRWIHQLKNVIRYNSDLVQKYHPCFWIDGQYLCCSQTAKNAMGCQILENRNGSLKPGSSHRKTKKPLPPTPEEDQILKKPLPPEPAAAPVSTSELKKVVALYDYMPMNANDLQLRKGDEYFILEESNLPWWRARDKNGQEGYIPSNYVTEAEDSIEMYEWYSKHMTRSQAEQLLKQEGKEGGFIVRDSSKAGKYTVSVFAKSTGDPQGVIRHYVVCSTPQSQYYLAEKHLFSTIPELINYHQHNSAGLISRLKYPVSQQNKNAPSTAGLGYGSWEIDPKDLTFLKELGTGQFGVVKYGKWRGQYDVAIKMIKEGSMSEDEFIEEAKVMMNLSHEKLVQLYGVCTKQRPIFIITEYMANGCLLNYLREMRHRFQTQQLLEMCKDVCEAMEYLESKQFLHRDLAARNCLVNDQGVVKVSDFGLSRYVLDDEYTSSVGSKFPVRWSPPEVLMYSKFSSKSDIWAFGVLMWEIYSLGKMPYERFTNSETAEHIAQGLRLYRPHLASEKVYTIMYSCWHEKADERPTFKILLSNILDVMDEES
Chain of human JAK3 (P52333 whole entry): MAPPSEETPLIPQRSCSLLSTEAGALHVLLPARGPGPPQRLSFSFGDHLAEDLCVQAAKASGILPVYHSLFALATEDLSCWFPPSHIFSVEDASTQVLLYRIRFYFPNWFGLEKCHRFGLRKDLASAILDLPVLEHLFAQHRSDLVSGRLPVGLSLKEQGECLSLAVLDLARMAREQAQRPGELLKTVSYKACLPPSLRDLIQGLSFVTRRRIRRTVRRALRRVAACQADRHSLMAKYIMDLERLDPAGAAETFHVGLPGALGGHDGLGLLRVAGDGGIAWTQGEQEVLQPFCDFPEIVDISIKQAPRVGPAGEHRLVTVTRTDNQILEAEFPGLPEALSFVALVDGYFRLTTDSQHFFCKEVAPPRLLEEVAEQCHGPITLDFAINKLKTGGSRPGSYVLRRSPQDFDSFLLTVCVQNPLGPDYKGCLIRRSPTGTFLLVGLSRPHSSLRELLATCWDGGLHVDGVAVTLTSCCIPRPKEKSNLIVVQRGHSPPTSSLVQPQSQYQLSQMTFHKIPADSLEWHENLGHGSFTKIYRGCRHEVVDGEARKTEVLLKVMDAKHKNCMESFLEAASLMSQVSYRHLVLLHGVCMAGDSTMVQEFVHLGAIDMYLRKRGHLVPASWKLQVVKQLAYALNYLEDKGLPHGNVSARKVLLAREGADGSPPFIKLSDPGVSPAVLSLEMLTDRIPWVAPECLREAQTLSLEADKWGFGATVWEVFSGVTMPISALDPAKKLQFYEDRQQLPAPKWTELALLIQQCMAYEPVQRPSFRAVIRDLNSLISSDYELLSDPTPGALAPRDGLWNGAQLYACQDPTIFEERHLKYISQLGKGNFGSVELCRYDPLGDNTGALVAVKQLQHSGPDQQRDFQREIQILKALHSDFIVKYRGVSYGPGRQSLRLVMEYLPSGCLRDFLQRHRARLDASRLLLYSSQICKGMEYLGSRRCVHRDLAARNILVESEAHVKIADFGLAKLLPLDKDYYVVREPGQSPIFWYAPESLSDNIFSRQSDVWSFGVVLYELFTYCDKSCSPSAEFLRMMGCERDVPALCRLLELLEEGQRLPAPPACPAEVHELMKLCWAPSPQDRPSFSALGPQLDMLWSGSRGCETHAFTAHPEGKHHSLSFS

As for `C=CC(=O)N1C[C@H](Nc2nc(Nc3cnn(CC)c3)nc3[nH]cc(Cl)c23)CC[C@@H]1C` [Example 1, 1-((2S,5R)-5-((5-chloro-2-((1-ethyl-1H-pyrazol-4-yl)amino)-7H-pyrrolo[2,3-d]pyrimidin-4-yl)amino)-2-methylpiperidin-1-yl)prop-2-en-1-one], the pIC50 (in general, −log10 of the IC50, conventionally taken in molar units) is 9.52 in assay [1], 7.04 in assay [2] and 8.92 in assay [3].

Regarding `C=CC(=O)N1C[C@H](N(C)c2nc(Nc3cnn(CC)c3)nc3[nH]nc(Cl)c23)CC[C@@H]1C` [Example 11, 1-((2S,5R)-5-((3-chloro-6-((1-ethyl-1H-pyrazol-4-yl)amino)-1H-pyrazolo[3,4-d]pyrimidin-4-yl)(methyl)amino)-2-methylpiperidin-1-yl)prop-2-en-1-one], the pIC50 in assay [1] was 8.24; in assay [3], 9.05.

Consider `C=CC(=O)N1C[C@H](Nc2nc(Nc3cnn(CCNC(=O)OC(C)(C)C)c3)nc3[nH]ccc23)CC[C@@H]1C` [Example 5], for which the pIC50 is 8.92 in assay [1] and 8.28 in assay [3].

Turning to `C=CC(=O)N1C[C@H](Nc2nc(Nc3cnn(CC)c3)nc3[nH]ccc23)CC[C@@H]1C` [Example 2, 1-((2S,5R)-5-((2-((1-ethyl-1H-pyrazol-4-yl)amino)-7H-pyrrolo[2,3-d]pyrimidin-4-yl)amino)-2-methylpiperidin-1-yl)prop-2-en-1-one], the pIC50 in assay [1] is 9.40; in assay [2], 6.44; in assay [3], 8.89.

`C=CC(=O)N1C[C@H](Nc2nc(Nc3cnsc3)nc3[nH]cc(Cl)c23)CC[C@@H]1C` [Example 6]: the pIC50 in assay [1] is 9.22; in assay [3] it was 8.47.

`C=CC(=O)N1C[C@H](Nc2nc(Nc3cnn(CC(F)F)c3)nc3[nH]cc(Cl)c23)CC[C@@H]1C` [Example 7, 1-((2S,5R)-5-((5-chloro-2-((1-(2,2-difluoroethyl)-1H-pyrazol-4-yl)amino)-7H-pyrrolo[2,3-d]pyrimidin-4-yl)amino)-2-methylpiperidin-1-yl)prop-2-en-1-one]: the figures for the pIC50 in assay [1] and in assay [3] were 9.52 and 8.80, respectively.

Take `C=CC(=O)N1C[C@H](Nc2nc(Nc3cnn(C4CC4)c3)nc3[nH]cc(Cl)c23)CC[C@@H]1C` [Example 9, 1-((2S,5R)-5-((5-chloro-2-((1-cyclopropyl-1H-pyrazol-4-yl)amino)-7H-pyrrolo[2,3-d]pyrimidin-4-yl)amino)-2-methylpiperidin-1-yl)prop-2-en-1-one]: the pIC50 is 9.52 in assay [1] and 8.70 in assay [3].

On to `C=CC(=O)N1C[C@H](Nc2nc(Nc3cnn(C4CCCC4)c3)nc3[nH]ccc23)CC[C@@H]1C` [Example 4, 1-((2S,5R)-5-((2-((1-cyclopentyl-1H-pyrazol-4-yl)amino)-7H-pyrrolo[2,3-d]pyrimidin-4-yl)amino)-2-methylpiperidin-1-yl)prop-2-en-1-one], for which the pIC50 in assay [1] was 8.66; in assay [3] it was 8.27.

For the compound `C=CC(=O)N1C[C@H](Nc2nc(Nc3cnn(CC(C)C)c3)nc3[nH]ccc23)CC[C@@H]1C` [Example 3, 1-((2S,5R)-5-((2-((1-isobutyl-1H-pyrazol-4-yl)amino)-7H-pyrrolo[2,3-d]pyrimidin-4-yl)amino)-2-methylpiperidin-1-yl)prop-2-en-1-one], the pIC50 in assay [1] is 8.74; in assay [3], 8.46.
